Measurements published in the supplement of paper PMC8149375.

What was measured:
Conditions in all cases: treatment: drug alone; 5 days
[1] = system: TK-10; assay: GI50, drug alone; higher = less potent
Method: (§1)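 Primary HTS: 8 RCC cell lines treated with 8 doses (up to 10 uM) of each library drug alone for 5 days; viability read by CellTiter-Glo and normalised to DMSO. GI50 was fitted with XLfit (4-parameter), AUC is the area under the dose-response curve, and minimum viability is the lowest fraction of DMSO viability across doses.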

[2] = system: SN12C; assay: GI50, drug alone; higher = less potent
Method: as §1

[3] = system: ACHN; assay: GI50, drug alone; higher = less potent
Method: as §1

[4] = system: A498; assay: GI50, drug alone; higher = less potent
Method: as §1

[5] = system: 786-O; assay: GI50, drug alone; higher = less potent
Method: as §1

[6] = system: UO-31; assay: GI50, drug alone; higher = less potent
Method: as §1

[7] = system: 769-P; assay: GI50, drug alone; higher = less potent
Method: as §1

[8] = system: CAKI-1; assay: GI50, drug alone; higher = less potent
Method: as §1

[9] = system: TK-10; assay: AUC of dose-response viability curve, drug alone (arbitrary (AUC of normalised viability)); higher = less growth inhibition
Method: as §1

[10] = system: SN12C; assay: as above
Method: as §1

[11] = system: ACHN; assay: as above
Method: as §1

[12] = system: A498; assay: as above
Method: as §1

[13] = system: 786-O; assay: as above
Method: as §1

[14] = system: UO-31; assay: as above
Method: as §1

[15] = system: 769-P; assay: as above
Method: as §1

[16] = system: CAKI-1; assay: as above
Method: as §1

[17] = system: TK-10; assay: minimum viability across doses, drug alone, relative to DMSO (fraction); higher = less growth inhibition
Method: as §1

[18] = system: SN12C; assay: as above
Method: as §1

[19] = system: ACHN; assay: as above
Method: as §1

[20] = system: A498; assay: as above
Method: as §1

[21] = system: 786-O; assay: as above
Method: as §1

[22] = system: UO-31; assay: as above
Method: as §1

[23] = system: 769-P; assay: as above
Method: as §1

[24] = system: CAKI-1; assay: as above
Method: as §1

Compound	GI50, drug alone [1]	GI50, drug alone [2]	GI50, drug alone [3]	GI50, drug alone [4]	GI50, drug alone [5]	GI50, drug alone [6]	GI50, drug alone [7]	GI50, drug alone [8]	AUC of dose-response viability curve [9]	AUC of dose-response viability curve [10]	AUC of dose-response viability curve [11]	AUC of dose-response viability curve [12]	AUC of dose-response viability curve [13]	AUC of dose-response viability curve [14]	AUC of dose-response viability curve [15]	AUC of dose-response viability curve [16]	minimum viability across doses [17]	minimum viability across doses [18]	minimum viability across doses [19]	minimum viability across doses [20]	minimum viability across doses [21]	minimum viability across doses [22]	minimum viability across doses [23]	minimum viability across doses [24]
O=C1NCCc2[nH]c(-c3ccncc3)cc21	3.62 µM	3.68 µM	1.67 µM	3.53 µM	0.539 µM	2.46 µM	> 10 µM	4.96 µM	2.88	3.27	2.7	3.22	2.22	3.43	3.24	3.31	0.188	0.0279	0.0193	0.0125	0.00414	0.00654	0.75	0.12
Clc1ccc(C2(c3ccc(-c4cn[nH]c4)cc3)CCNCC2)cc1 [AT7867]	3.73 µM	5.46 µM	2.57 µM	7.63 µM	1.11 µM	0.249 µM	6.56 µM	4.09 µM	2.84	3.13	2.89	3.49	2.05	2.21	3.02	2.8	0.0799	0.212	0.0705	0.263	0.00712	0.00617	0.338	0.155
CNC(=O)c1cccc(-c2ccc3c(N4CCOC[C@@H]4C)nc(N4CCOC[C@@H]4C)nc3n2)c1 [AZD2014]	0.145 µM	0.364 µM	0.12 µM	0.936 µM	0.0236 µM	0.135 µM	0.573 µM	0.246 µM	1.67	2.12	1.61	2.91	1.18	1.88	2.29	1.86	0.108	0.177	0.0767	0.229	0.0673	0.0166	0.0959	0.0604
Nc1nccc(Oc2ccc(NC(=O)c3c[nH]cc(-c4ccc(F)cc4)c3=O)cc2F)c1Cl	> 10 µM	> 10 µM	> 10 µM	> 10 µM	> 10 µM	3.8 µM	> 10 µM	> 10 µM	2.97	3.25	3.5	4.08	2.73	4.74	3.52	3.45	0.689	0.711	0.649	0.973	0.607	0.00247	0.951	0.716
Cn1c(=O)c(F)c(Nc2ccc(I)cc2F)c2c(=O)n(C[C@@H](O)CO)cnc21 [TAK-733]	0.149 µM	0.758 µM	0.209 µM	> 10 µM	0.167 µM	2.45 µM	0.933 µM	0.095 µM	1.72	2.08	1.8	3.42	2.08	3.49	2.33	1.57	0.242	0.26	0.291	0.784	0.396	0.0861	0.293	0.17
Cc1csc(-c2nnc(Nc3ccc(Oc4ncccc4-c4ccnc(N)n4)cc3)c3ccccc23)c1 [AMG 900]	> 10 µM	4.57 µM	0.171 µM	> 10 µM	0.0169 µM	> 10 µM	0.109 µM	0.672 µM	2.41	2.49	1.72	4.67	0.822	3.73	1.64	2.02	0.561	0.479	0.231	0.776	0.0401	0.875	0.287	0.425
CC(C)NC[C@@H](C(=O)N1CCN(c2ncnc3c2[C@H](C)C[C@H]3O)CC1)c1ccc(Cl)cc1 [GDC-0068]	2.26 µM	> 10 µM	9.24 µM	> 10 µM	0.251 µM	3.09 µM	> 10 µM	8.11 µM	2.3	2.98	2.85	4.05	1.88	3.66	3.51	3.21	0.375	0.758	0.529	0.82	0.252	0.0182	0.81	0.52
O=C(O)c1ccc(Nc2ncc3c(n2)-c2ccc(Cl)cc2C(c2c(F)cccc2F)=NC3)cc1 [MLN8054]	> 10 µM	6.21 µM	1.83 µM	> 10 µM	0.523 µM	> 10 µM	5.56 µM	3.18 µM	2.93	3.01	2.48	3.53	2.52	3.59	2.85	2.84	0.668	0.427	0.246	0.562	0.038	0.748	0.365	0.4
C=CCc1cccc(/C=N/NC(=O)CN2CCN(Cc3ccccc3)CC2)c1O [PAC-1]	1.62 µM	3.35 µM	0.74 µM	8.78 µM	0.61 µM	1.7 µM	2.32 µM	3.23 µM	2.69	3.01	2.23	3.43	2.18	3.29	2.94	3.2	0.0835	0.138	0.0162	0.368	0.00713	0.0166	0.0295	0.117
